Data published in patent US4070469A, “Compound for the treatment of bovine mastitis” (priority 1975, dated 1978).
In brackets after ≈: the same amount, converted by molar mass. Read-outs that look alike come from different tables or passages of the source.

Tests used:
[1] = tested on: Strep.uberis; assay: Minimal bactericidal activity (MBC) in milk, field isolates; assay type: cell-based; conditions: Streptococcus uberis, in milk at pH 7.2 - 7.4
Source text: (§1) The activity of some of said nitrofuryl quinolines derivatives against Strep.uberis and Stap.Aureus in milk has been compared with the activity of some of the compounds so far utilised in the treatment of bovine mastitis. The results are shown in Table I. (The nitrofuryl quinoline derivatives have general formula [drawing 1] the meaning of R, A, R', B, Y, X and Z being given in the Table. R1 =O whenever indicated then the N-oxide is concerned; NF stands for nitrofuryl)
(§2) Minimal Bactericidal/Activity (MBC) of representative Nitrofuryl
(§3) in mcg/ml in milk at pH 7.2 - 7.4. Versus Standards (Field

[2] = tested on: Staph.Aureus; assay: as above; assay type: cell-based; conditions: Staphylococcus aureus, in milk at pH 7.2 - 7.4
Source text: as §1, §2, §3

[3] = field isolate 60B, read-out: Minimal Bactericidal Activity (MBC), Strep.uberis 60B
[4] = field isolate 127A, read-out: Minimal Bactericidal Activity (MBC), Strep.uberis 127A
[5] = field isolate 2337, read-out: Minimal Bactericidal Activity (MBC), Staph.Aureus 2337
[6] = field isolate 2372, read-out: Minimal Bactericidal Activity (MBC), Staph.Aureus 2372

Row | SMILES | MBC [1, 3] [µg/mL] | MBC [1, 4] [µg/mL] | MBC [2, 5] [µg/mL] | MBC [2, 6] [µg/mL]
1 | O=C(N[C@H](CO)[C@H](O)c1ccc([N+](=O)[O-])cc1)C(Cl)Cl [Chloramphenicol, reference compound] | 50 (≈ 155 µM) | > 400 | > 50 | > 50
2 | O=C(O)c1cc(-c2ccc([N+](=O)[O-])o2)c2ccccc2n1 [Compound 2, 4-(5-nitrofuryl)-quinaldinic acid] | 0.12 (≈ 0.422 µM) | 1 (≈ 3.52 µM) | 1 (≈ 3.52 µM) | 0.5 (≈ 1.76 µM)
3 | O=[N+]([O-])c1ccc(-c2ccc3ccccc3n2)o1 [Compound 3] | > 10 | > 10 | > 10 | > 10
4 | Cc1cc(-c2ccc([N+](=O)[O-])o2)[n+]([O-])c2ccccc12 [Compound 4] | > 10 | > 10 | 10 (≈ 37 µM) | > 10
5 | Cc1cc(-c2ccc([N+](=O)[O-])o2)c2ccccc2n1 [Compound 5] | 10 (≈ 39.3 µM) | 10 (≈ 39.3 µM) | > 10 | > 10
6 | Cc1cc(-c2ccc([N+](=O)[O-])o2)c2ccccc2[n+]1[O-] [Compound 6] | 5 (≈ 18.5 µM) | 5 (≈ 18.5 µM) | 5 (≈ 18.5 µM) | 5 (≈ 18.5 µM)
7 | CCc1ccc2nc(C)cc(-c3ccc([N+](=O)[O-])o3)c2c1 [Compound 7] | > 10 | > 10 | > 10 | > 10
8 | CC(=O)Oc1ccc2c(-c3ccc([N+](=O)[O-])o3)cc(C)nc2c1 [Compound 8] | 0.25 (≈ 0.801 µM) | 10 (≈ 32 µM) | 5 (≈ 16 µM) | 5 (≈ 16 µM)
9 | COc1ccc2c(-c3ccc([N+](=O)[O-])o3)cc(C)nc2c1 [Compound 9] | 10 (≈ 35.2 µM) | 5 (≈ 17.6 µM) | 5 (≈ 17.6 µM) | 5 (≈ 17.6 µM)
10 | CCc1cccc2c(-c3ccc([N+](=O)[O-])o3)cc(C)nc12 [Compound 10] | > 10 | > 10 | > 10 | > 10
11 | O=[N+]([O-])c1ccc(-c2ccnc3ccccc23)o1 [Compound 11] | 10 (≈ 41.6 µM) | > 10 | > 10 | > 10
12 | CCc1cc(-c2ccc([N+](=O)[O-])o2)c2cc(C)ccc2n1 [Compound 12] | > 10 | > 10 | > 10 | > 10
13 | O=[N+]([O-])c1ccc(-c2cc(CO)nc3ccccc23)o1 [Compound 13] | 5 (≈ 18.5 µM) | > 10 | 10 (≈ 37 µM) | 5 (≈ 18.5 µM)
14 | O=[N+]([O-])c1ccc(-c2cc(C(Br)(Br)Br)nc3ccccc23)o1 [Compound 14] | 5 (≈ 10.2 µM) | 5 (≈ 10.2 µM) | 10 (≈ 20.4 µM) | > 10
15 | O=[N+]([O-])c1ccc(-c2cc(C=NO)nc3ccccc23)o1 [Compound 15] | 1 (≈ 3.53 µM) | 1 (≈ 3.53 µM) | 1 (≈ 3.53 µM) | 1 (≈ 3.53 µM)
16 | CCOc1ccc2c(-c3ccc([N+](=O)[O-])o3)cc(C(=O)O)nc2c1 [Compound 17] | 0.03 (≈ 0.0914 µM) | 1 (≈ 3.05 µM) | 1 (≈ 3.05 µM) | 0.5 (≈ 1.52 µM)
17 | O=C(c1cc(-c2ccc([N+](=O)[O-])o2)c2ccccc2n1)N1CCOCC1 [Compound 18] | 5 (≈ 14.2 µM) | > 10 | > 10 | 10 (≈ 28.3 µM)
18 | CCc1ccc2c(c1)c(-c1ccc([N+](=O)[O-])o1)cc(C)[n+]2[O-] [Compound 20] | > 10 | > 10 | 5 (≈ 16.8 µM) | 5 (≈ 16.8 µM)
19 | Cc1ccc2c(-c3ccc([N+](=O)[O-])o3)cc(C)[n+]([O-])c2c1 [Compound 21] | 5 (≈ 17.6 µM) | 10 (≈ 35.2 µM) | 5 (≈ 17.6 µM) | 10 (≈ 35.2 µM)

Row | SMILES | MBC [1, 3] [µg/mL] | MBC [1, 4] [µg/mL] | MBC [2, 5] [µg/mL] | MBC [2, 6] [µg/mL]
20 | COc1ccc2c(-c3ccc([N+](=O)[O-])o3)cc(C)[n+]([O-])c2c1 [Compound 23] | 5 (≈ 16.7 µM) | 5 (≈ 16.7 µM) | 5 (≈ 16.7 µM) | 5 (≈ 16.7 µM)
21 | CCc1cc(-c2ccc([N+](=O)[O-])o2)c2ccc(OC)cc2[n+]1[O-] [Compound 24] | > 10 | > 10 | > 10 | 10 (≈ 31.8 µM)
22 | COc1ccc2c(-c3ccc([N+](=O)[O-])o3)cc(C(=O)O)[n+]([O-])c2c1 [Compound 25] | 0.25 (≈ 0.757 µM) | 0.5 (≈ 1.51 µM) | 1 (≈ 3.03 µM) | 5 (≈ 15.1 µM)
23 | Cc1ccc2nc(C)cc(-c3ccc([N+](=O)[O-])o3)c2c1 [Compound 27] | 10 (≈ 37.3 µM) | 10 (≈ 37.3 µM) | 10 (≈ 37.3 µM) | 10 (≈ 37.3 µM)
24 | Cc1cc(-c2ccc([N+](=O)[O-])o2)c2ccc(Cl)cc2n1 [Compound 28] | > 10 | > 10 | > 10 | > 10
25 | Cc1ccc2c(c1)c(-c1ccc([N+](=O)[O-])o1)cc(C)[n+]2[O-] [Compound 29] | 5 (≈ 17.6 µM) | 5 (≈ 17.6 µM) | 5 (≈ 17.6 µM) | 5 (≈ 17.6 µM)
26 | CCc1cc(-c2ccc([N+](=O)[O-])o2)c2ccccc2[n+]1[O-] [Compound 30] | 5 (≈ 17.6 µM) | > 10 | 5 (≈ 17.6 µM) | 10 (≈ 35.2 µM)
27 | CCc1ccc2nc(CC)cc(-c3ccc([N+](=O)[O-])o3)c2c1 [Compound 31] | > 10 | > 10 | > 10 | > 10
28 | CCc1ccc2c(c1)c(-c1ccc([N+](=O)[O-])o1)cc(CC)[n+]2[O-] [Compound 32] | 1 (≈ 3.2 µM) | > 10 | > 10 | > 10
29 | CC(=O)OCc1cc(-c2ccc([N+](=O)[O-])o2)c2ccccc2n1 [Compound 33] | > 10 | > 10 | > 10 | > 10
30 | COc1cc2nc(C)cc(-c3ccc([N+](=O)[O-])o3)c2cc1N [Compound 34] | 0.25 (≈ 0.835 µM) | 1 (≈ 3.34 µM) | 5 (≈ 16.7 µM) | 5 (≈ 16.7 µM)
31 | Cc1cc(-c2ccc([N+](=O)[O-])o2)c2ccc(N)c(C)c2n1 [Compound 35] | 5 (≈ 17.6 µM) | 10 (≈ 35.3 µM) | 5 (≈ 17.6 µM) | 5 (≈ 17.6 µM)
32 | CNN=Cc1cc(-c2ccc([N+](=O)[O-])o2)c2ccccc2n1 [Compound 36] | 5 (≈ 16.9 µM) | 5 (≈ 16.9 µM) | > 10 | 5 (≈ 16.9 µM)
33 | COc1cc2nc(C)cc(-c3ccc([N+](=O)[O-])o3)c2cc1OC [Compound 37] | 5 (≈ 15.9 µM) | 10 (≈ 31.8 µM) | 10 (≈ 31.8 µM) | 5 (≈ 15.9 µM)
34 | CCOc1ccc2c(-c3ccc([N+](=O)[O-])o3)cc(C=NO)nc2c1 [Compound 38] | 5 (≈ 15.3 µM) | 10 (≈ 30.6 µM) | 10 (≈ 30.6 µM) | 5 (≈ 15.3 µM)
35 | COc1cc2c(-c3ccc([N+](=O)[O-])o3)cc(C)[n+]([O-])c2cc1OC [Compound 39] | 0.25 (≈ 0.757 µM) | 1 (≈ 3.03 µM) | 10 (≈ 30.3 µM) | 0.5 (≈ 1.51 µM)
36 | CCc1cc(-c2ccc([N+](=O)[O-])o2)c2cc(C)c(C)cc2[n+]1[O-] [Compound 40] | 5 (≈ 16 µM) | 10 (≈ 32 µM) | 5 (≈ 16 µM) | 5 (≈ 16 µM)
37 | O=[N+]([O-])c1ccc(-c2cc[n+]([O-])c3ccccc23)o1 [Compound 41] | 5 (≈ 19.5 µM) | 10 (≈ 39 µM) | 10 (≈ 39 µM) | 5 (≈ 19.5 µM)
38 | CCCOc1ccc2c(-c3ccc([N+](=O)[O-])o3)cc(C)[n+]([O-])c2c1 [Compound 42] | 5 (≈ 15.2 µM) | 5 (≈ 15.2 µM) | 10 (≈ 30.5 µM) | 5 (≈ 15.2 µM)
